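Interpolation was linear, between the two tested concentrations surrounding the appropriate level; five concentrations were tested over 48 hours in 96-well plates. TGI: concentration producing complete growth inhibition.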
Legend:
Test in all cases: NCI-60 cell line screen, 48 h
[1] = system: T-47D breast
[2] = system: RPMI-8226 leukemia
[3] = system: EKVX NSCLC
[4] = system: UACC-62 melanoma
[5] = system: SF-295 CNS
[6] = system: RXF 393 renal
[7] = system: M14 melanoma
[8] = system: SF-268 CNS
[9] = system: MCF7 breast
[10] = system: HCT-116 colon
[11] = system: COLO 205 colon
[12] = system: SN12C renal
[13] = system: OVCAR-4 ovarian
[14] = system: OVCAR-3 ovarian
[15] = system: SF-539 CNS
[16] = system: PC-3 prostate
[17] = system: K-562 leukemia
[18] = system: BT-549 breast
[19] = system: SNB-75 CNS
[20] = system: IGROV1 ovarian
[21] = system: UO-31 renal
[22] = system: 786-0 renal
[23] = system: NCI-H522 lung
[24] = system: TK-10 renal
[25] = system: CCRF-CEM leukemia
[26] = system: NCI-H226 lung
[27] = system: SK-MEL-28 melanoma
[28] = system: KM12 colon
[29] = system: UACC-257 melanoma
[30] = system: OVCAR-5 ovarian
[31] = system: SNB-19 CNS
[32] = system: HCC-2998 colon
[33] = system: NCI/ADR-RES ovarian
[34] = system: MDA-MB-231 breast
[35] = system: NCI-H23 lung
[36] = system: NCI-H460 lung
[37] = system: ACHN renal
[38] = system: MDA-N
[39] = system: SW-620 colon
[40] = system: HL-60(TB) leukemia
[41] = system: HS 578T breast
[42] = system: U251 CNS
[43] = system: SR leukemia
[44] = system: HOP-62 NSCLC
[45] = system: DU-145 prostate
[46] = system: SK-OV-3 ovarian
[47] = system: A549 NSCLC
[48] = system: HOP-92 NSCLC
[49] = system: A498 renal
[50] = system: SK-MEL-2 melanoma
[51] = system: LOX IMVI melanoma
[52] = system: MALME-3M melanoma
[53] = system: MDA-MB-435
[54] = system: CAKI-1 renal
[55] = system: MOLT-4 leukemia
[56] = system: HT29 colon
[57] = system: OVCAR-8 ovarian
[58] = system: HCT-15 colon
[59] = system: SK-MEL-5 melanoma

Measured: TGI

CCN(CC)/[N+]([O-])=N/OCOC(C)=O
> 100 µM: all assays above

CCOc1ccc(N=NS(=O)(=O)O)cc1
not listed: [55]
> 100 µM: all other assays above

Source: PubChem BioAssay (NCI)
